Like-named read-outs stand apart in the source and are kept apart here.
Tests used:
[1] = system: cGAMP-stimulated THP1-Dual cells (pathway directly downstream of cGAS); experiment: cGAMP stimulated counter cell assay: inhibition of IFN induction in cGAMP-stimulated THP1 cells (THP1(cGAMP) IC50); assay type: cell-based, human; details: for IC50: Homo sapiens, THP1-Dual; for Ratio THP1(cGAMP) IC50 / THP1(vir) IC50: selectivity for cGAS inhibition
Source text: (§1) 6.2 Method: Human cGAS Cell Assay and cGAMP Stimulated Counter Cell Assay (THP1(vir) IC50 and THP1(cGAMP) IC50)
(§2) THP1-Dual™ cells (InvivoGen #thpd-nfis) expressing IRF dependent Lucia luciferase reporter were used as basis for both assays. For the detection of cellular cGAS activity cells were stimulated by a baculovirus (pFastbac-1, Invitrogen, no coding insert) infection that delivers the cGAS enzyme stimulating double-stranded DNA (measurement of THP1(vir) IC50).
(§3) For the counter assay, cells were stimulated by cGAMP (SigmaAldrich #SML1232) to activate the identical pathway independent and directly downstream of cGAS (measurement of THP1(cGAMP) IC50). Pathway activity was monitored by measuring the Lucia luciferase activity induced by either DNA stimulated cGAS enzyme activity (measurement of THP1(vir) IC50) or by cGAMP directly (measurement of THP1(cGAMP) IC50, counter assay).
(§4) Compounds were delivered in 10 mM DMSO solution, serially diluted and transferred to the 384 well assay plate (Greiner #781201) using an Echo acoustic dispenser. Typically, 8 concentrations were used with the highest concentration at 10 μM in the final assay volume followed by ˜1:5 dilution steps. DMSO concentration was set to 1% in the final assay volume. The 384 well assay plate contained 21 test compounds (column 1-22), and DMSO in column 23 and 24.
(§5) Cells, cultivated according to manufacturer conditions, were harvested by centrifugation at 300 g/10 min and were then resuspended and diluted to 1.66E5 cells/ml in fresh cell culture medium (RPMI 1640 (Gibco #A10491-01), 10% FCS (Gibco #10500), 1× GlutaMax (Gibco #35050-061), 1× Pen/Strep solution (Gibco #15140-122), 100 μg/ml Normocin (InvivoGen #ant-nr), 100 μg/ml Zeocin (InvivoGen #ant-zn), 10 μg/ml Blasticidin S (Life Technologies #A11139-03)). The baculovirus solution was then added 1:200 (have varied according to virus batch) to the cells (measurement of THP1(vir) IC50).
(§6) 30 μL of the cell/virus-mix were added to each well of the compound plate from column 1-23 via MultiDrop Combi dispenser (5000 cells/well). In column 24, 30 μl/5000 cells/well without virus were added as a low control.
(§7) The plates were then incubated for 18 h at 37° C. in a humidified incubator.
(§8) Following that, 15 μl of QuantiLuc detection reagent (InvivoGen #rep-qlcg5) were added to each well using a MultiDrop Combi. Measurement was done immediately after the addition using an EnVision reader (US-luminescence read-mode).
(§9) For data evaluation and calculation, the measurement of the low control was set as 0% control and the measurement of the high control was set as 100% control. The IC50 values were calculated using the standard 4 parameter logistic regression formula. Calculation: [y=(a−d)/(1+(x/c)^b)+d], a=low value, d=high value; x=conc M; c=IC50 M; b=slope

cGAS = cGAS (Homo sapiens (Human), UniProt Q8N884); experiment: Human cGAS enzyme assay (hcGAS IC50, in vitro), cGAMP formation by RapidFire MS; assay type: biochemical; details: biochemical (in vitro) cGAS inhibition;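 also: enzyme activated by 45 bp dsDNA with GTP and ATP (30 µM each), 60 min compound pre-incubation then 90 min reaction, cGAMP relative to cyclic-di-GMP internal standard, 8-point dilutions up to 10 µM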
[2] = system: cellular cGAS activity in baculovirus-stimulated THP1-Dual cells (IRF dependent Lucia luciferase reporter); experiment: Human cGAS cell assay: inhibition of IFN induction in virus-stimulated THP1 cells (THP1(vir) IC50); assay type: cell-based; details: Homo sapiens, THP1-Dual
Source text: as §1, §2, §3, §4, §5, §6, §7, §8, §9

[3] = system: cellular cGAS activity in dsDNA-stimulated human whole blood; experiment: Human whole blood assay (hWB IC50): IFNα2α production after dsDNA transfection; assay type: cell-based; details: inhibition of IFN induction in dsDNA-stimulated human whole blood
Method: 6.3 Method: Human Whole Blood Assay (Human WB IC50)
For the detection of cellular cGAS activity human whole blood was stimulated by transfection with double stranded DNA. Pathway activity was monitored by measuring the IFNα2α production.
Compounds were delivered as 10 mM DMSO solution and serially diluted and transferred to the 96-well cell culture plate (Corning #3595), prefilled with 20 μl OptiMEM (Gibco, #11058-021) in each well, using an Echo acoustic dispenser. Typically, 8 concentrations were used with the highest concentration at 10 µM in the final assay volume followed by ˜1:5 dilution steps. DMSO concentration was set to 0.1% in the final assay volume. The 96-well assay plate contained 10 test compounds, and DMSO in control wells.
Collection of human whole blood from 3 or more healthy donors (male or female, no medication for 7 days except contraceptive and thyroxine) as Na-Citrate blood (e.g. 3.8% in Monovettes from Sarstedt) was conducted in parallel. Whole blood was kept at room temperature for a maximum of 3 hours after collection until use in the assay.
160 μl of the whole blood samples was transferred to each well of the 96-well assay plates filled with compound/OptiMEM. All assay plates were prepared as duplicates with blood from different donors. Blood plates were kept at room temperature for 60 minutes and continuous shaking with 450 rpm, covered with the lid, but not sealed.
20 μl OptiMEM and 9.6:1 Fugene was added to all low control wells.
After covering assay plates with aera seals and the lid, blood plates were kept at room temperature for 30 minutes and continuous shaking with 450 rpm, followed by an overnight incubation of 22 h at 37° C. in the incubator, without shaking.
For the detection of IFNα-2α in human plasma, the biotinylated capture antibody (Antibody set IFNA2, Meso Scale Diagnostics #B21VH-3, including coating and capture antibody) was diluted 1:17.5 in Diluent 100 (Meso Scale Diagnostics #R^50AA-4), according to the manufacturer's directions. U-Plex MSD GOLD 96-well Small Spot Strepavidin SECTOR Plates (Meso Scale Diagnostics #L45SA-5) were coated with 25 μl diluted capture antibody. Coated plates were incubated for 60 min at room temperature under continuous shaking at 700 rpm. MSD IFNα-2α plates were washed three times with 150 μl wash buffer (1x HBSS, 0.05% Tween).
After blocking the plates with 100 μl block solution/well (1x HBSS with 0.2% Tween, 2% BSA) for 60 min at room temperature and continuous shaking at 700 rpm, plates were emptied as dry as possible by dumping just before continuing with the human plasma.
Whole Blood assay plates were centrifuged at 1600 rpm for 10 minutes. 25 μl of supernatant was transferred with a pipetting robot from each whole blood plate to the corresponding IFNα-2α plate. Plates were sealed with microplate seals and kept at room temperature again under continuous shaking at 700 rpm for two hours.
Next MSD IFNα-2α plates were washed three times with 150 μl wash buffer (1×HBSS, 0.05% Tween), before adding 25 μl MSD SULFO-TAG IFNα-2α Antibody solution (1:100 diluted in Diluent 3 (Meso Scale Diagnostics #R50AP-2) to each well of the plates.
Afterwards plates were sealed with microplate seals and kept at room temperature again under continuous shaking at 700 rpm for two hours. Finally, MSD IFNα-2α plates were washed three times with 150 μl wash buffer (1×HBSS, 0.05% Tween). 150 μl 2× Read buffer was added to each well and plates were immediately measured with the MSD Sector S600 Reader using the vendor barcode.
For data evaluation and calculation, % control calculation of each well was based on the mean of high (DNA stimulated control) and mean of low (unstimulated control) controls by using the following formula:
[counts(sample)−counts(low))/(counts(high)−counts(low))]*100
The IC50 values were calculated using the standard 4 parameter logistic regression formula. Calculation: [y=(a−d)/(1+(x/c)^b)+d], a=low value, d=high value; x=conc M; c=IC50 M; b=slope

[4] = inhibition of IFN induction in cGAMP-stimulated THP1 cells, read-out: THP1(cGAMP) IC50 (converted)
[5] = inhibition of IFN induction in virus-stimulated THP1 cells, read-out: THP1(vir) IC50
[6] = read-out: THP1(vir) IC50, inhibition of IFN induction in virus-stimulated THP1 cells
[7] = cGAMP-stimulated THP1 cells, counter assay, read-out: THP1(cGAMP) IC50 (converted)
[8] = read-out: THP1(vir) IC50, virus-stimulated THP1 cells, IFN induction

Chain of cGAS (Q8N884 whole entry): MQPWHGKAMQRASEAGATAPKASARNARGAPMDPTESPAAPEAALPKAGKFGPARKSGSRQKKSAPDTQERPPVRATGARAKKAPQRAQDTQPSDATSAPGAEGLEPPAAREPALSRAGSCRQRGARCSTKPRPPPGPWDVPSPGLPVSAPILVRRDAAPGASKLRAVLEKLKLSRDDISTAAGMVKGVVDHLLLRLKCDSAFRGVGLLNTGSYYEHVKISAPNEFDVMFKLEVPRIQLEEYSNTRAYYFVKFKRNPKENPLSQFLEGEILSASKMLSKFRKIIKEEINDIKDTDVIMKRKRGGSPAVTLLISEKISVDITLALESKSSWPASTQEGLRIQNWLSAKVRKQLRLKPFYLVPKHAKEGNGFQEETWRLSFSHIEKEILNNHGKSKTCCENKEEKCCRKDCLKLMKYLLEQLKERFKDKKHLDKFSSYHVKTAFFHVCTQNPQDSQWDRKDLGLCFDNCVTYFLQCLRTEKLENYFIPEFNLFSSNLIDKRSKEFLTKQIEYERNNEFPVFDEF

N#CC1CN(c2cc(Cl)cnc2O[C@H]2C[C@@H](C(=O)O)N(c3nc(C(F)(F)F)nc4c3oc3ccccc34)C2)CCO1 (stereo partly drawn) [Example 1.01, (2S,4S)-4-{[5-Chloro-3-(2-cyanomorpholin-4-yl)pyridin-2-yl]oxy}-1-[4-(trifluoromethyl)-8-oxa-3,5-diazatricyclo[7.4.0.0^2,7]trideca-1(13),2,4,6,9,11-hexaen-6-yl]pyrrolidine-2-carboxylic acid]
IC50 [1, 4]: 24600 nM | Ratio THP1(cGAMP) IC50 / THP1(vir) IC50 [1]: 30 | IC50 (cGAS): 8 nM | IC50 [2, 5]: 829 nM

CC1(C#N)CN(c2cc(Cl)cnc2O[C@H]2C[C@@H](C(=O)O)N(c3nc(C(F)F)nc4c3oc3ccccc34)C2)CCO1 (stereo partly drawn) [Example 1.02]
IC50 [1, 4]: 21900 nM | Ratio THP1(cGAMP) IC50 / THP1(vir) IC50 [1]: 31 | IC50 (cGAS): 4 nM | IC50 [2, 5]: 697 nM | IC50 [3]: 3440 nM

CC1(C#N)CN(c2cc(Cl)cnc2O[C@H]2C[C@@H](C(=O)O)N(c3nc(C(F)(F)F)nc4c3oc3ccccc34)C2)CCO1 (stereo partly drawn) [Example 1.03]
IC50 [1, 4]: 15100 nM | Ratio THP1(cGAMP) IC50 / THP1(vir) IC50 [1]: 38 | IC50 (cGAS): 7 nM | IC50 [2, 5]: 399 nM | IC50 [3]: 8450 nM

CC1(C#N)CCCN(c2cc(Cl)cnc2O[C@H]2C[C@@H](C(=O)O)N(c3nc(C(F)F)nc4c3oc3ccccc34)C2)C1 (stereo partly drawn) [Example 1.04]
IC50 [1, 4]: 10000 nM | Ratio THP1(cGAMP) IC50 / THP1(vir) IC50 [1]: 31 | IC50 [2, 5]: 327 nM | IC50 [3]: 3700 nM

C[C@@H]1OCCN(c2cc(Cl)cnc2O[C@H]2C[C@@H](C(=O)O)N(c3nc(C(F)(F)F)nc4c3oc3ccccc34)C2)[C@H]1C [Example 1.06]
IC50 [1, 4]: 14300 nM | Ratio THP1(cGAMP) IC50 / THP1(vir) IC50 [1]: 15 | IC50 (cGAS): 65 nM | IC50 [2, 5]: 951 nM

O=C(O)[C@@H]1C[C@H](Oc2ncc(Cl)cc2N2CCc3nocc3C2)CN1c1nc(C(F)(F)F)nc2c1oc1ccccc12 [Example 1.07]
IC50 [1, 4]: 18700 nM | Ratio THP1(cGAMP) IC50 / THP1(vir) IC50 [1]: 24 | IC50 (cGAS): 5 nM | IC50 [2, 5]: 781 nM

O=C(O)[C@@H]1C[C@H](Oc2ncc(Cl)cc2N2CCc3nocc3C2)CN1c1nc(C(F)F)nc2c1oc1ccccc12 [Example 1.08]
IC50 [1, 4]: 18700 nM | Ratio THP1(cGAMP) IC50 / THP1(vir) IC50 [1]: 23 | IC50 (cGAS): 4 nM | IC50 [2, 5]: 831 nM

C#Cc1cnc(O[C@H]2C[C@@H](C(=O)O)N(c3nc(C(F)F)nc4c3oc3ccccc34)C2)c(N2CCOC3(COC3)[C@@H]2C)c1 [Example 1.11]
IC50 [1, 4]: 18500 nM | IC50 [2, 5]: 6 nM | IC50 [3]: 5 nM

O=C(O)[C@@H]1C[C@H](Oc2ncc(Br)cc2N2CCOC3(COC3)C2)CN1c1nc(C(F)F)nc2c1oc1ccccc12 [Example 1.24]
IC50 [1, 4]: > 16600 nM | Ratio THP1(cGAMP) IC50 / THP1(vir) IC50 [1]: >20 | IC50 [2, 5]: 848 nM | IC50 [3]: 850 nM

C#Cc1cnc(O[C@H]2C[C@@H](C(=O)O)N(c3nc(C(F)F)nc4c3oc3ccccc34)C2)c(N2CCOC3(COC3)C2)c1 [Example 1.25]
IC50 ([1]; read-out: THP1(cGAMP) IC50): > 16600 nM | Ratio THP1(cGAMP) IC50 / THP1(vir) IC50 [1]: >32 | IC50 [2, 6]: 517 nM | IC50 [3]: 551 nM

C#Cc1cnc(O[C@H]2C[C@@H](C(=O)O)N(c3nc(Cl)nc4c3oc3ccccc34)C2)c(N2CCOC[C@@H]2C)c1 [Example 1.32]
IC50 (cGAS): 4 nM | IC50 [2, 5]: 487 nM

C#Cc1cnc(O[C@H]2C[C@@H](C(=O)O)N(c3nc(C)nc4c3oc3ccccc34)C2)c(N2CCOC3(COC3)[C@@H]2C)c1 [Example 2.03]
IC50 [1, 4]: 16400 nM | IC50 [2, 5]: < 5 nM | IC50 [3]: 9 nM

C[C@@H]1N(c2cc(-c3cccnc3C#N)cnc2O[C@H]2C[C@@H](C(=O)O)N(c3nc(C(F)(F)F)nc4c3oc3ccccc34)C2)CCOC12COC2 [Example 3.28]
IC50 [1, 4]: 16400 nM | Ratio THP1(cGAMP) IC50 / THP1(vir) IC50 [1]: 23 | IC50 (cGAS): 14 nM | IC50 [2, 5]: 712 nM

C[C@@H]1N(c2cc(-c3ccnc(N(C)C)c3)cnc2O[C@H]2C[C@@H](C(=O)O)N(c3nc(C(F)F)nc4c3oc3ccccc34)C2)CCOC12COC2 [Example 4.01, (2S,4S)-1-[4-(Difluoromethyl)-8-oxa-3,5-diazatricyclo[7.4.0.0^2,7]trideca-1(9),2(7),3,5,10,12-hexaen-6-yl]-4-({N,N-dimethyl-5-[(9S)-9-methyl-2,5-dioxa-8-azaspiro[3.5]nonan-8-yl]-[3,4′-bipyridin]-2′-yl}oxy)pyrrolidine-2-carboxylic acid]
IC50 ([1]; read-out: THP1(cGAMP) IC50): 6680 nM | IC50 [2, 6]: < 5 nM | IC50 [3]: 5 nM

Cc1nc(N2CCC[C@H]2C(=O)O)c2oc3ccccc3c2n1 [Example 15, reference compound]
IC50 [1, 7]: > 17000 nM

Cc1nc(N2C[C@@H](CC(=O)Nc3ccncc3)C[C@H]2C(=O)O)c2oc3ccccc3c2n1 [Example 28, reference compound]
IC50 [2, 8]: > 32000 nM

Cc1nc(N2C[C@@H](Nc3ccncc3)C[C@H]2C(=O)O)c2oc3ccccc3c2n1 [Example 38, reference compound]
IC50 [1, 7]: > 17000 nM

CC(C)(C(=O)N[C@H]1C[C@@H](C(=O)O)N(c2nc(C(F)(F)F)nc3c2oc2ccccc23)C1)c1cn[nH]c1 [Example 58, reference compound]
IC50 [2, 8]: 21000 nM
